Test results as given in ChEMBL document CHEMBL4118210, “Synthesis of novel hetero ring fused pyridine derivatives; Their anticancer activity, CoMFA and CoMSIA studies” (Bioorg Med Chem Lett, 2018).
pIC50: −log10 of the molar value.

Experiments:
HepG2 = test: Antiproliferative activity against human HepG2 cells by MTT assay; assay type: functional, cell-based
HEK293 = test: Antiproliferative activity against human HEK293 cells by MTT assay; assay type: cell-based
HeLa = test: Antiproliferative activity against human HeLa cells by MTT assay; assay type: functional, cell-based
COLO 205 = test: Antiproliferative activity against human COLO205 cells by MTT assay; assay type: functional, cell-based
MCF7 = test: Antiproliferative activity against human MCF7 cells by MTT assay; assay type: functional, cell-based

SMILES | pIC50 (HepG2) | IC50 (HEK293) | pIC50 (HeLa; read-out: IC50) | pIC50 (COLO 205; read-out: IC50) | IC50 (COLO 205; read-out: pIC50 (converted)) | pIC50 (MCF7; read-out: IC50) | IC50 (MCF7; read-out: pIC50 (converted)) | pIC50 (HEK293) | IC50 (HeLa; read-out: pIC50 (converted)) | IC50 (HepG2) | IC50 (HeLa; read-out: IC50) | IC50 (COLO 205; read-out: IC50) | IC50 (MCF7; read-out: IC50)
O=c1c2oc3nc(-c4cccs4)cc(C(F)(F)F)c3c2ncn1C1CCCC1 | 4.30 | > 220 µg/mL | 4.30 | 4.37 | 42.7 µM | 4.20 | 63.1 µM | – | – | – | – | – | –
Cc1ccc(/C=N/NC(=O)c2oc3nc(-c4ccccc4)cc(C(F)(F)F)c3c2N)cc1 | 5.05 | – | 4.93 | 5.04 | 9.12 µM | 4.99 | 10.2 µM | 4.16 | 11.7 µM | – | – | – | –
CCCNC(=O)c1oc2nc(-c3cccs3)cc(C(F)(F)F)c2c1N | 4.76 | – | 4.72 | 4.82 | 15.5 µM | 4.69 | 20.4 µM | 4.19 | 19.1 µM | – | – | – | –
O=c1c2oc3nc(-c4cccs4)cc(C(F)(F)F)c3c2ncn1/N=C/c1ccc(Br)cc1 | – | > 220 µg/mL | – | – | – | – | – | – | – | > 220 µg/mL | > 220 µg/mL | > 220 µg/mL | > 220 µg/mL
CCCn1c(C)nc2c(oc3nc(-c4ccccc4)cc(C(F)(F)F)c32)c1=O | – | – | – | – | – | 3.93 | 117 µM | 4.28 | – | > 220 µg/mL | > 220 µg/mL | > 220 µg/mL | –
O=c1c2oc3nc(-c4ccccc4)cc(C(F)(F)F)c3c2ncn1C1CCCC1 | – | > 220 µg/mL | – | – | – | – | – | – | – | > 220 µg/mL | > 220 µg/mL | > 220 µg/mL | > 220 µg/mL
CCCn1c(C)nc2c(oc3nc(-c4cccs4)cc(C(F)(F)F)c32)c1=O | 4.64 | – | 4.55 | 4.72 | 19.1 µM | 4.50 | 31.6 µM | 4.17 | 28.8 µM | – | – | – | –
Cn1cnc2c(oc3nc(-c4ccccc4)cc(C(F)(F)F)c32)c1=O | 3.66 | > 220 µg/mL | – | – | 9.77 µM | – | – | – | – | – | > 220 µg/mL | > 220 µg/mL | > 220 µg/mL
Nc1c(C(=O)N/N=C/c2ccc(Br)cc2)oc2nc(-c3ccccc3)cc(C(F)(F)F)c12 | 4.70 | – | 4.62 | 4.67 | 21.4 µM | 4.73 | 18.6 µM | 4.19 | 24 µM | – | – | – | –
CCn1c(C)nc2c(oc3nc(-c4cccs4)cc(C(F)(F)F)c32)c1=O | – | > 220 µg/mL | – | – | – | – | – | – | – | > 220 µg/mL | > 220 µg/mL | > 220 µg/mL | > 220 µg/mL
CCCNC(=O)c1oc2nc(-c3ccccc3)cc(C(F)(F)F)c2c1N | 4.43 | – | 4.44 | 4.41 | 38.9 µM | 4.45 | 35.5 µM | 4.09 | 36.3 µM | – | – | – | –
Nc1c(C(=O)N/N=C/c2ccc(Br)cc2)oc2nc(-c3cccs3)cc(C(F)(F)F)c12 | 5.21 | – | 5.19 | 5.23 | 5.89 µM | 5.28 | 5.25 µM | 4.07 | 6.46 µM | – | – | – | –
Nc1c(C(=O)N/N=C/c2ccc(Cl)cc2)oc2nc(-c3ccccc3)cc(C(F)(F)F)c12 | 4.92 | – | 5.39 | 4.95 | 11.2 µM | 4.92 | 12 µM | 4.09 | 4.07 µM | – | – | – | –
O=c1c2oc3nc(-c4ccccc4)cc(C(F)(F)F)c3c2ncn1/N=C/c1ccc(Cl)cc1 | – | > 220 µg/mL | – | 4.36 | 43.7 µM | 4.25 | 57.5 µM | – | – | > 220 µg/mL | > 220 µg/mL | – | –
CNC(=O)c1oc2nc(-c3ccccc3)cc(C(F)(F)F)c2c1N | 4.39 | – | 4.40 | 4.43 | 37.2 µM | 4.43 | 37.2 µM | 4.21 | 45.7 µM | – | – | – | –
Cn1cnc2c(oc3nc(-c4cccs4)cc(C(F)(F)F)c32)c1=O | – | > 220 µg/mL | – | – | – | – | – | – | 50.1 µM | > 220 µg/mL | > 220 µg/mL | > 220 µg/mL | > 220 µg/mL
Cc1nc2c(oc3nc(-c4ccccc4)cc(C(F)(F)F)c32)c(=O)n1C1CCCC1 | 4.77 | – | 4.74 | 4.73 | 18.6 µM | 4.64 | 22.9 µM | 4.02 | 18.2 µM | – | – | – | –
CCNC(=O)c1oc2nc(-c3cccs3)cc(C(F)(F)F)c2c1N | 4.92 | – | 4.85 | 4.73 | 18.6 µM | 4.66 | 21.9 µM | 4.21 | 14.1 µM | – | – | – | –
CCCn1cnc2c(oc3nc(-c4ccccc4)cc(C(F)(F)F)c32)c1=O | – | – | – | – | – | 4.07 | 85.1 µM | 4.05 | – | > 220 µg/mL | > 220 µg/mL | > 220 µg/mL | –
CCn1c(C)nc2c(oc3nc(-c4ccccc4)cc(C(F)(F)F)c32)c1=O | – | > 220 µg/mL | – | – | – | – | – | – | – | > 220 µg/mL | > 220 µg/mL | > 220 µg/mL | > 220 µg/mL
Cc1ccc(/C=N/NC(=O)c2oc3nc(-c4cccs4)cc(C(F)(F)F)c3c2N)cc1 | 4.70 | – | 4.61 | 4.67 | 10.2 µM | 4.73 | 11.2 µM | 4.11 | 9.12 µM | – | – | – | –

SMILES | pIC50 (HepG2) | IC50 (HEK293) | pIC50 (HeLa; read-out: IC50) | pIC50 (COLO 205; read-out: IC50) | IC50 (COLO 205; read-out: pIC50 (converted)) | pIC50 (MCF7; read-out: IC50) | IC50 (MCF7; read-out: pIC50 (converted)) | pIC50 (HEK293) | IC50 (HeLa; read-out: pIC50 (converted)) | IC50 (HepG2) | IC50 (HeLa; read-out: IC50) | IC50 (COLO 205; read-out: IC50) | IC50 (MCF7; read-out: IC50)
Nc1c(C(=O)NC2CCCC2)oc2nc(-c3ccccc3)cc(C(F)(F)F)c12 | 4.49 | – | 4.59 | 4.29 | 51.3 µM | 4.22 | 60.3 µM | 4.07 | 25.7 µM | – | – | – | –
O=c1c2oc3nc(-c4ccccc4)cc(C(F)(F)F)c3c2ncn1/N=C/c1ccccc1 | – | > 220 µg/mL | – | – | – | – | – | – | – | > 220 µg/mL | > 220 µg/mL | > 220 µg/mL | > 220 µg/mL
Nc1c(C(=O)N/N=C/c2ccc(Cl)cc2)oc2nc(-c3cccs3)cc(C(F)(F)F)c12 | 5.09 | – | 5.10 | 5.11 | 7.94 µM | 5.13 | 7.41 µM | 4.08 | 7.94 µM | – | – | – | –
O=c1c2oc3nc(-c4ccccc4)cc(C(F)(F)F)c3c2ncn1/N=C/c1ccc(Br)cc1 | – | > 220 µg/mL | – | – | – | – | – | – | – | > 220 µg/mL | > 220 µg/mL | > 220 µg/mL | > 220 µg/mL
Cc1nc2c(oc3nc(-c4cccs4)cc(C(F)(F)F)c32)c(=O)n1C1CCCC1 | – | – | – | – | – | – | 11.7 µM | 3.91 | – | > 220 µg/mL | > 220 µg/mL | > 220 µg/mL | > 220 µg/mL
CCCn1cnc2c(oc3nc(-c4cccs4)cc(C(F)(F)F)c32)c1=O | – | > 220 µg/mL | – | – | – | – | – | – | – | > 220 µg/mL | > 220 µg/mL | > 220 µg/mL | > 220 µg/mL
CCNC(=O)c1oc2nc(-c3ccccc3)cc(C(F)(F)F)c2c1N | 4.37 | – | 4.44 | 4.53 | 28.8 µM | 4.27 | 53.7 µM | 4.15 | 36.3 µM | – | – | – | –
O=c1c2oc3nc(-c4cccs4)cc(C(F)(F)F)c3c2ncn1/N=C/c1ccccc1 | – | – | 4.37 | – | – | – | – | 4.05 | 42.7 µM | > 220 µg/mL | – | > 220 µg/mL | > 220 µg/mL
CCn1cnc2c(oc3nc(-c4cccs4)cc(C(F)(F)F)c32)c1=O | – | > 220 µg/mL | – | – | – | – | – | – | – | > 220 µg/mL | > 220 µg/mL | > 220 µg/mL | > 220 µg/mL
Nc1c(C(=O)NC2CCCC2)oc2nc(-c3cccs3)cc(C(F)(F)F)c12 | 4.68 | – | 4.66 | 4.74 | 18.6 µM | 4.64 | 22.9 µM | 4.29 | 21.9 µM | – | – | – | –
CNC(=O)c1oc2nc(-c3cccs3)cc(C(F)(F)F)c2c1N | 4.91 | – | 4.81 | 4.75 | 17.8 µM | 4.74 | 18.2 µM | 4.12 | 15.5 µM | – | – | – | –
Cc1nc2c(oc3nc(-c4ccccc4)cc(C(F)(F)F)c32)c(=O)n1C | – | > 220 µg/mL | – | – | – | – | – | – | – | > 220 µg/mL | > 220 µg/mL | > 220 µg/mL | > 220 µg/mL
O=c1c2oc3nc(-c4cccs4)cc(C(F)(F)F)c3c2ncn1/N=C/c1ccc(Cl)cc1 | – | – | – | 4.29 | 51.3 µM | 4.38 | 42.7 µM | 3.99 | – | > 220 µg/mL | > 220 µg/mL | – | –
Nc1c(C(=O)N/N=C/c2ccccc2)oc2nc(-c3cccs3)cc(C(F)(F)F)c12 | 5.00 | – | 4.93 | 5.01 | – | 4.92 | 12 µM | 4.14 | 11.7 µM | – | – | – | –
Cc1ccc(/C=N/n2cnc3c(oc4nc(-c5ccccc5)cc(C(F)(F)F)c43)c2=O)cc1 | – | > 220 µg/mL | – | – | – | – | – | – | – | > 220 µg/mL | > 220 µg/mL | > 220 µg/mL | > 220 µg/mL
Nc1c(C(=O)N/N=C/c2ccccc2)oc2nc(-c3ccccc3)cc(C(F)(F)F)c12 | 4.88 | – | 4.87 | 4.91 | 12.3 µM | 4.85 | 14.1 µM | 4.15 | 13.5 µM | – | – | – | –
Cc1ccc(/C=N/n2cnc3c(oc4nc(-c5cccs5)cc(C(F)(F)F)c43)c2=O)cc1 | – | > 220 µg/mL | 4.37 | – | – | 4.53 | 29.5 µM | – | 42.7 µM | > 220 µg/mL | – | > 220 µg/mL | –
CCn1cnc2c(oc3nc(-c4ccccc4)cc(C(F)(F)F)c32)c1=O | – | – | – | – | – | 4.08 | 83.2 µM | 3.92 | – | > 220 µg/mL | > 220 µg/mL | > 220 µg/mL | –
Cc1nc2c(oc3nc(-c4cccs4)cc(C(F)(F)F)c32)c(=O)n1C | – | > 220 µg/mL | – | – | – | – | – | – | – | > 220 µg/mL | > 220 µg/mL | > 220 µg/mL | > 220 µg/mL
O=c1[nH]cc(F)c(=O)[nH]1 [FLUOROURACIL] | 5.77 | – | – | – | – | – | – | 4.71 | – | – | – | – | –
